This note sets out measurements from US20260068885A1, “HERBICIDAL COMPOSITIONS” (BAYER AKTIENGESELLSCHAFT, priority 2022, published 2026).

Experiment in all cases: Post-emergence herbicidal action against harmful plants (greenhouse)
Holding throughout (assay type): in vivo

Experiment [1] has as its system Sorghum halepense (SORHA). The protocol: (§1) Seeds of monocotyledonous and dicotyledonous weed and crop plants are laid out in sandy loam soil in wood-fibre pots, covered with soil and cultivated in a greenhouse under good growth conditions. 2 to 3 weeks after sowing, the test plants are treated at the one-leaf stage. The compounds of the invention, formulated in the form of wettable powders (WP) or as emulsion concentrates (EC), are then sprayed onto the green parts of the plants in the form of an aqueous suspension or emulsion at a water application rate equivalent to 600 to 800 l/ha, with addition of 0.2% wetting agent. After the test plants have been left to stand in the greenhouse under optimal growth conditions for about 3 weeks, the action of the preparations is assessed visually in comparison to untreated controls (herbicidal action in percent (%): 100% activity=the plants have died, 0% activity=like control plants). […] The tables below illustrate, in an illustrative manner, the post-emergence herbicidal action of the compounds of the invention, the herbicidal activity being stated in percent.
(§2) In the tables that follow, the abbreviations mean the following: • E: means the synergism value to be expected according to the Colby formula. • Δ SYN: means the difference between the actual and expected synergism value. • DAT: means days after treatment.

Experiment [2] deals with Xanthium strumarium (XANST). The protocol: as §1, §2
Experiment [3] relates to Emex australis (EMEAU). As for the experimental part: as §1, §2
The subject of experiment [4] is Xanthium strumarium (XANST). This is another data set of the same source.
In experiment [5] the test system is Solanum nigrum (SOLNI). As for the experimental part:
as §1, with “[…],” for “left to stand in the greenhouse under optimal growth conditions for about 3 weeks,”
as §2

Experiment [6] relates to Abutilon theophrasti (ABUTH). As for the experimental part: as §1, with “[…],” for “left to stand in the greenhouse under optimal growth conditions for about 3 weeks,”
as §2

Experiment [7] deals with Pharbitis purpurea (PHBPU).
Experiment [8] deals with Brachiaria platyphylla (BRAPP). As for the experimental part: as §1, §2
The test system of experiment [9] is Erigeron bonariensis (ERIBO). The protocol:
as §1, with “[…],” for “left to stand in the greenhouse under optimal growth conditions for about 3 weeks,”
as §2

Experiment [10] concerns Setaria viridis (SETVI). As for the experimental part:
as §1, with “[…],” for “left to stand in the greenhouse under optimal growth conditions for about 3 weeks,”
as §2

For experiment [11], the system named is Cyperus iria (CYPIR). As for the experimental part:
as §1, with “[…],” for “left to stand in the greenhouse under optimal growth conditions for about 3 weeks,”
as §2

Experiment [12] relates to Polygonum convolvulus (POLCO).
The subject of experiment [13] is Euphorbia heterophylla (EPHHL). As for the experimental part:
as §1, §2

Where [14] appears, read: application rate 0.025 g a.i./ha, 21 DAT.
[15] abbreviates: application rate 0.00625 g a.i./ha.
Where [16] appears, read: application rate 0.025 g a.i./ha.
Where [17] appears, read: application rate 0.25 g a.i./ha.

SMILES strings stand for the structures.

Consider `C=C[C@]1(C(=O)N[C@H]2CO[C@@H](C(=O)OC)C2)CC(c2cc(F)cc(F)c2)=NO1` (relative stereo) [P1, methyl (2R*,4R*)-4-[[(5S)-3-(3,5-difluorophenyl)-5-vinyl-4H-isoxazole-5-carbonyl]amino]tetrahydrofuran-2-carboxylate], for which the “Herbicidal efficacy [%] against SORHA 21 DAT” value in [1] (application rate 0.3 g a.i./ha) and in [1] (application rate 1.2 g a.i./ha) was 90% throughout. Moreover, in [2] (application rate 0.3 g a.i./ha), the “Herbicidal efficacy [%] against XANST 21 DAT” value is given as 40%. Besides, the Herbicidal efficacy in experiment [3] (EMEAU 10 DAT, 1.2 g a.i./ha) is 70%; in experiment [3] (EMEAU 21 DAT, 1.2 g a.i./ha), 80%; in experiment [5] (SOLNI 10 DAT, 0.3 g a.i./ha), 40%; in experiment [6] (ABUTH 10 DAT, 0.3 g a.i./ha), 70%; in experiment [6] (ABUTH 21 DAT, 1.2 g a.i./ha), 85%. Besides, the “Herbicidal efficacy [%] against XANST 10 DAT” value in experiment [4] (application rate 0.3 g a.i./ha) was 60%.
Turning to `Cc1cccc(C)c1-n1c(=O)c2cc(C(=O)C3C(=O)CCCC3=O)ccc2n(C)c1=O` [benquitrione], the Herbicidal efficacy in experiment [7] (PHBPU 10 DAT, 6 g a.i./ha) stood at 40%; in [7] (PHBPU 21 DAT, 6 g a.i./ha), 20%; in experiment [8] (BRAPP 10 DAT, 1.5 g a.i./ha), 20%; in [8] (BRAPP 10 DAT, 6 g a.i./ha), 80%; in [8] (BRAPP 21 DAT, 1.5 g a.i./ha), 10%; in experiment [8] (BRAPP 21 DAT, 6 g a.i./ha) it was 20%. The Herbicidal efficacy stood at 85% in experiment [5] (SOLNI 21 DAT, 6 g a.i./ha); 85% in experiment [9] (ERIBO 10 DAT, 6 g a.i./ha); 85% in [9] (ERIBO 21 DAT, 6 g a.i./ha); 88% in [10] (SETVI 10 DAT, 6 g a.i./ha); 50% in [10] (SETVI 21 DAT, 1.5 g a.i./ha); 20% in [6] (ABUTH 10 DAT, 1.5 g a.i./ha). Further, the Herbicidal efficacy in [6] (ABUTH 10 DAT, 6 g a.i./ha) was 40%; in experiment [6] (ABUTH 21 DAT, 6 g a.i./ha), 10%; in [11] (CYPIR 10 DAT, 1.5 g a.i./ha), 40%; in experiment [11] (CYPIR 21 DAT, 1.5 g a.i./ha) it was 30%; in experiment [12] (POLCO 10 DAT, 6 g a.i./ha), 20%. For the same compound, the “Herbicidal efficacy [%] against SORHA 10 DAT” value in experiment [1] (application rate 1.5 g a.i./ha) amounted to 10%; in experiment [1] (application rate 6 g a.i./ha) it was 20%. Further, the “Herbicidal efficacy [%] against SORHA 21 DAT” value amounted to 0% in experiment [1] (application rate 1.5 g a.i./ha) and 10% in experiment [1] (application rate 6 g a.i./ha). Also, the “Herbicidal efficacy [%] against XANST 21 DAT” value in experiment [4] (application rate 6 g a.i./ha) came to 50%.
Consider `COC(=O)[C@@H](C)O/N=C/c1cc(-n2c(=O)cc(C(F)(F)F)n(C)c2=O)c(F)cc1Cl` [flufenoximacil], for which the “Herbicidal efficacy [%] against PHBPU 21 DAT” value in experiment [7] (setting [14]) came to 75%. The “Herbicidal efficacy [%] against SORHA 10 DAT” value in experiment [1] (setting [15]) came out at 20%. Also, in experiment [2] (setting [15]), the “Herbicidal efficacy [%] against XANST 21 DAT” value is on record as 10%. Also, in [3] (application rate 0.00625 g a.i./ha, 10 DAT), the “Herbicidal efficacy [%] against EMEAU 10 DAT” value worked out at 50%. Moreover, in [3] (application rate 0.00625 g a.i./ha, 21 DAT), the “Herbicidal efficacy [%] against EMEAU 21 DAT” value came out at 10%. Further, the “Herbicidal efficacy [%] against EPHHL 21 DAT” value came out at 40% in experiment [13] (setting [15]) and 88% in experiment [13] (setting [16]). Moreover, the “Herbicidal efficacy [%] against ERIBO 21 DAT” value in [9] (setting [16]) worked out at 40%; in experiment [9] (application rate 0.1 g a.i./ha), 60%. Also, in experiment [12] (setting [14]), the “Herbicidal efficacy [%] against POLCO 21 DAT” value amounted to 60%.
Turning to `COC(=O)CCNC(=O)C(C)Sc1cc(-n2c(=O)cc(C(F)(F)F)n(C)c2=O)c(F)cc1Cl` (centres unmarked) [tiafenacil], the “Herbicidal efficacy [%] against SORHA 21 DAT” value in [1] (application rate 1 g a.i./ha) came out at 85%. The Herbicidal efficacy in experiment [8] (BRAPP 21 DAT, 1 g a.i./ha) worked out at 40%. In [4] (application rate 1 g a.i./ha), the “Herbicidal efficacy [%] against XANST 10 DAT” value came out at 88% and the “Herbicidal efficacy [%] against XANST 21 DAT” value is reported as 85%. Besides, in experiment [5] (application rate 1 g a.i./ha), the “Herbicidal efficacy [%] against SOLNI 10 DAT” value is reported as 88% and the “Herbicidal efficacy [%] against SOLNI 21 DAT” value is reported as 60%. Besides, in [11] (CYPIR 21 DAT, 0.25 g a.i./ha), the Herbicidal efficacy turned out to be 88%.
Consider `CCn1ncc(C(=O)c2ccc(S(C)(=O)=O)c(OCCOC)c2C)c1OC(C)OC(=O)OC` (centres unmarked) [tolpyralate], for which the Herbicidal efficacy is reported as 10% in experiment [7] (PHBPU 10 DAT, 0.5 g a.i./ha); 10% in experiment [7] (PHBPU 21 DAT, 0.5 g a.i./ha); 30% in [8] (BRAPP 10 DAT, 0.5 g a.i./ha); 20% in experiment [8] (BRAPP 21 DAT, 0.5 g a.i./ha); 80% in [8] (BRAPP 21 DAT, 2 g a.i./ha); 90% in experiment [9] (ERIBO 10 DAT, 2 g a.i./ha). Moreover, the Herbicidal efficacy in experiment [9] (ERIBO 21 DAT, 2 g a.i./ha) is 85%; in [10] (SETVI 21 DAT, 0.5 g a.i./ha) it was 60%; in [10] (SETVI 21 DAT, 2 g a.i./ha) it was 88%; in experiment [11] (CYPIR 10 DAT, 0.5 g a.i./ha), 40%; in experiment [11] (CYPIR 21 DAT, 0.5 g a.i./ha), 20%; in [11] (CYPIR 21 DAT, 2 g a.i./ha) it was 30%. Besides, the Herbicidal efficacy in experiment [12] (POLCO 10 DAT, 0.5 g a.i./ha) came to 30%; in experiment [12] (POLCO 21 DAT, 0.5 g a.i./ha), 20%. In [1] (application rate 2 g a.i./ha), the “Herbicidal efficacy [%] against SORHA 10 DAT” value amounted to 85%. Also, the “Herbicidal efficacy [%] against SORHA 21 DAT” value in experiment [1] (application rate 2 g a.i./ha) was found to be 50%. Moreover, the “Herbicidal efficacy [%] against XANST 21 DAT” value in [2] (application rate 0.5 g a.i./ha) is on record as 30%; in experiment [2] (application rate 2 g a.i./ha) it was 70%. In addition, the “Herbicidal efficacy [%] against SOLNI 21 DAT” value in [5] (application rate 0.5 g a.i./ha) was 85%.
Regarding `C#CCN1C(=O)C(F)(F)Oc2cc(F)c(-n3c(=O)n(C)c(=S)n(C)c3=O)cc21` [trifludimoxazin], the Herbicidal efficacy came out at 80% in experiment [7] (PHBPU 21 DAT, 1 g a.i./ha); 85% in experiment [3] (EMEAU 21 DAT, 1 g a.i./ha); 88% in experiment [13] (EPHHL 21 DAT, 0.25 g a.i./ha); 80% in [8] (BRAPP 10 DAT, 1 g a.i./ha); 85% in experiment [10] (SETVI 10 DAT, 0.25 g a.i./ha); 70% in [10] (SETVI 21 DAT, 0.25 g a.i./ha). The Herbicidal efficacy in [6] (ABUTH 10 DAT, 0.25 g a.i./ha) is recorded as 88%; in experiment [6] (ABUTH 10 DAT, 1 g a.i./ha), 85%; in experiment [6] (ABUTH 21 DAT, 0.25 g a.i./ha), 80%; in experiment [6] (ABUTH 21 DAT, 1 g a.i./ha), 75%. Moreover, the “Herbicidal efficacy [%] against SORHA 10 DAT” value was found to be 70% in experiment [1] (setting [17]) and 85% in experiment [1] (application rate 1 g a.i./ha). Moreover, the results for the “Herbicidal efficacy [%] against SORHA 21 DAT” value in experiment [1] (setting [17]) and in [1] (application rate 1 g a.i./ha) were 40% and 70%, respectively. Further, the “Herbicidal efficacy [%] against SOLNI 10 DAT” value in [5] (application rate 1 g a.i./ha) was determined as 88%. For the same compound, the “Herbicidal efficacy [%] against SOLNI 21 DAT” value in experiment [5] (application rate 1 g a.i./ha) is on record as 60%.
